In patent EP4810052A2, “HCRHR2 SELECTIVE POLYPEPTIDES” (Gubra A/S, priority 2023, dated 2026):
Like-named read-outs stand apart in the source and are kept apart here. Starred links: 1 amine or outer side, 2 acyl side, 3 side chain; linkers in the order of their positions; H or OH if unused. Non-standard residues stand in square brackets, D forms with d. Residues, ends and D or L forms follow the SMILES beside them. Groups on a side chain read outwards from the residue. *: point of attachment. C20 diacid = O=C(O)CCCCCCCCCCCCCCCCCCC(=O)*; γGlu = O=C(O)[C@H](CCC(=O)[*:2])N[*:1]; NMeI = CC[C@H](C)[C@H](NC)C(=O)O; Nle = CCCC[C@H](N)C(=O)O; AEEA = NCCOCCOCC(=O)O; Aib = CC(C)(N)C(=O)O

Columns and labels:
PK in minipigs = conditions: male, Göttingen, minipig, in vivo; for half-life: iv, read-out: T½ (converted); for half-life / Cmax / Tmax: Pig; for bioavailability / Cmax / Tmax: sc; for Cmax / Tmax: 6.0 nmol/kg s.c
Method: Pharmacokinetics studies were determined in male Göttingen minipigs from Ellegaard Göttingen Minipigs A/S. Animals were acclimatised for at least 7 days before placed on study. The minipigs had prior to study been surgically implanted with central venous catheters inserted which were used for blood sampling. Animals were housed under a 12/12 h dark-light cycle with ad libitum access to domestic water and animals were fed a commercially standard maintenance diet twice daily.
Test compounds where administrated either as a cassette or as a single compound. Test compounds were administrated by a single intravenous injection or short infusion (5-10 min) through the implanted catheter or a single subcutaneously injection. The subcutaneously injection was given in the mid neck between ear and scapula with a stopper on the needle, allowing 0.5 cm of the needle to be inserted.Plasma concentration-time profiles employing 12-16 sampling points were obtained from each animal. As an example, blood samples were collected on the following times: 0 (predose), 0.17, 0.33, 0.5, 1, 2, 5, 6, 24, 48, 72, 92, 168, 240 and 336 hrs post administration. Approximately 2 mL blood was drawn from the central catheter from each animal at each sampling point. Blood samples were taken in K2 or K3 EDTA tubes. Blood was kept on ice for maximum 30 min before centrifugation (10 min, 4°C, 2000 x g). Approximately 200 µL plasma samples was transferred to a Micronic tube and stored at -20° or lower.
Pharmacokinetics parameters were calculated by non-compartmental analysis (NCA) of the individual plasma concentrations-time profile from the animals. The log-linear trapezoidal method was used for estimation of AUC and AUMC. The terminal T½ was determined as In(2)/λz where λz is the first order rate constant as determined by the terminal log-linear part of the curve.
Plasma concentrations were measured by LC-MSMS using electrospray ionization and multiple reaction monitoring. Calibration standards and quality control (QC) samples were prepared in specie match matrix. 15 µL calibration standards, QC and study samples were extracted by protein precipitation using 60 µL methanol followed by addition of 45 µL milliQ water. Samples were shaken (800 rpm) at room temperature for 5 min before centrifugation (2570×g, 40 min, 4°C) and the supernatant was transferred to a LoBind PCR plate. Samples were analysed on a Thermo Triscend UHPLC system coupled to a Sciex API 6500+ mass spectrometer. Samples were subject to online SPE clean-up on a HLB column (1×50 mm, Waters) before loaded onto a Aeris Peptide XB C18 column (3.6 µm, 100 Å, 2×50 mm, Phenomenex) analytical column. The mobile phases consisted of acetonitrile and milliQ H2O both containing 0.1% V/V formic acid. The flow rate was 0.60 mL/min and the column was kept at room temperature.

rCRHR2 = target: T1, rCRHR2 (Rattus norvegicus, UniProt P47866); experiment: cAMP potency, transiently transfected CHO-K1 cells, rCRHR2; assay type: cell-based; conditions: transiently transfected CHO-K1, average n=3; read-out: Transient cell system EC50 (nM) rCRHR 2
T1 construct: DYK (FLAG); host or cells: CHO-K1, transiently transfected
T1 sequence (P47866 whole entry): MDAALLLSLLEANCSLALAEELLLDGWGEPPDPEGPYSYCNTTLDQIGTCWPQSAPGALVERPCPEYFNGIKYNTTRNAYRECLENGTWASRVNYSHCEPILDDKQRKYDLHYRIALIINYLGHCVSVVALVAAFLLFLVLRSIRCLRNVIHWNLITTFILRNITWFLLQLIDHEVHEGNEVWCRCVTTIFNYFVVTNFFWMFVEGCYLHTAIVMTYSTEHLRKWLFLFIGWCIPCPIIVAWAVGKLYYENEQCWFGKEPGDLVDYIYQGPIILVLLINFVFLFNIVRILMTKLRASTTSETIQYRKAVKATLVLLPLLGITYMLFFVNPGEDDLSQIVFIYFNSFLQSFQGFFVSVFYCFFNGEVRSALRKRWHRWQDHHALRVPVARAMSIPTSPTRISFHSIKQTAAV
Method: (§1) Selected peptides were tested for potency on different species (mouse, rat, porcine) using transiently transfected CHO-K1 cells using the general procedure.

hCRHR1 = target: T2, hCRHR1 (Homo sapiens, UniProt P34998); experiment: cAMP potency, transiently transfected CHO-K1 cells, hCRHR1; assay type: cell-based; set-up: DYK (FLAG); host or cells: CHO-K1, transiently transfected; conditions: transiently transfected CHO-K1, average n=3; read-out: Transient cell system EC50 (nM) hCR HR1
T2 sequence (P34998 24-415): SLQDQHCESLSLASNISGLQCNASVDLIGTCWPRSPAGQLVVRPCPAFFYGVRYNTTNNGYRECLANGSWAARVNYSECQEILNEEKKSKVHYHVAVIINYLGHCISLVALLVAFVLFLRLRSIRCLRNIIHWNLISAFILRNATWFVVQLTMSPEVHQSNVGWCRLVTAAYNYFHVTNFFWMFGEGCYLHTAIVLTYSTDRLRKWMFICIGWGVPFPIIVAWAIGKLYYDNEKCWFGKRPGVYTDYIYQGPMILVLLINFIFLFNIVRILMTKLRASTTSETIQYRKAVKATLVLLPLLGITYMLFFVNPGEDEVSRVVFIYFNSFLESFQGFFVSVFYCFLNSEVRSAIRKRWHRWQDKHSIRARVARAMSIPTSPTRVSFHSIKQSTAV

pCRHR2 = experiment: cAMP potency, transiently transfected CHO-K1 cells, pCRHR2; assay type: cell-based, pig; conditions: transiently transfected CHO-K1, average n=3; read-out: Transient cell system EC50 (nM) pCR HR2
Method: as §1

hCRHR2b = target: T3, hCRHR2b (Homo sapiens, UniProt Q13324); experiment: cAMP potency, transiently transfected CHO-K1 cells, hCRHR2b; assay type: cell-based; conditions: transiently transfected CHO-K1, average n=3; read-out: Transient cell system EC50 (nM) hCRHR 2b
T3 construct: DYK (FLAG); host or cells: CHO-K1, transiently transfected
T3 sequence (Q13324 1-438 isoform Q13324-2): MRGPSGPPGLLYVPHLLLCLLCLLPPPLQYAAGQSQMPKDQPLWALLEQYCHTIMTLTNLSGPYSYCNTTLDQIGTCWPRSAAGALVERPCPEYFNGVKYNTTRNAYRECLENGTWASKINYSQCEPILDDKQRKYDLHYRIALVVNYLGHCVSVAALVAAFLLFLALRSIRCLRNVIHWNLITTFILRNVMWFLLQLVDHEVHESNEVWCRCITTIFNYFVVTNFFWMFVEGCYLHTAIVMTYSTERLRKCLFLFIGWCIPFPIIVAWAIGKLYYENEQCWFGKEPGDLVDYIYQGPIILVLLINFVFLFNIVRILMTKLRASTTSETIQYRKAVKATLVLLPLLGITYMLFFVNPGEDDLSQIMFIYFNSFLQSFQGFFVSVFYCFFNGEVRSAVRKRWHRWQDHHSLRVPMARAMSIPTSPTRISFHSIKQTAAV

Row | Structure (SMILES) | half-life (PK in minipigs; 4.6 nmol/kg i.v.) | bioavailability (PK in minipigs) | Cmax (PK in minipigs) | Tmax (PK in minipigs) | EC50 (rCRHR2) | EC50 (hCRHR1) | EC50 (pCRHR2) | EC50 (hCRHR2b) | half-life (PK in minipigs; 5.8 nmol/kg i.v.)
1 | CC[C@H](C)[C@H](NC)C(=O)N[C@H](C(=O)N[C@@H](CC(C)C)C(=O)N[C@@H](CO)C(=O)N[C@@H](CC(C)C)C(=O)N[C@@H](CC(=O)O)C(=O)N[C@H](C(=O)N1CCC[C@H]1C(=O)N[C@H](C(=O)NCC(=O)N[C@@H](CC(C)C)C(=O)N[C@@H](CC(C)C)C(=O)N[C@@H](CCC(N)=O)C(=O)N[C@H](C(=O)N[C@@H](CC(C)C)C(=O)N[C@@H](CC(C)C)C(=O)N[C@@H](CCC(=O)O)C(=O)N[C@@H](CCC(N)=O)C(=O)N[C@@H](C)C(=O)N[C@@H](CCCNC(=N)N)C(=O)N[C@@H](C)C(=O)N[C@@H](CCCNC(=N)N)C(=O)N[C@@H](C)C(=O)N[C@@H](C)C(=O)N[C@@H](CCCNC(=N)N)C(=O)N[C@@H](CCC(=O)O)C(=O)N[C@@H](CCC(N)=O)C(=O)N[C@@H](C)C(=O)N[C@@H](CCCCNC(=O)COCCOCCNC(=O)COCCOCCNC(=O)CC[C@H](NC(=O)CC[C@H](NC(=O)CCCCCCCCCCCCCCCCCCC(=O)O)C(=O)O)C(=O)O)C(=O)N[C@H](C(=O)N[C@@H](CC(N)=O)C(=O)NC(C)(C)C(=O)N[C@@H](CCC(=O)O)C(=O)N[C@H](C(=O)N[C@@H](CC(C)C)C(=O)N[C@@H](C)C(=O)N[C@@H](CCC(=O)O)C(=O)N[C@H](C(N)=O)C(C)C)[C@@H](C)CC)[C@@H](C)O)[C@@H](C)CC)[C@@H](C)CC)C(C)C)C(C)C [SEQ ID NO: 16] (H-[NMeI]VLSLDVPIGLLQILLEQARARAAREQAK([AEEA-AEEA-γGlu-γGlu-C20 diacid])TN[Aib]EILAEV-NH2) | 208 h | 66% | 35 nM | 48 h | 0.19 nM | > 1000 nM | 0.028 nM | 0.012 nM | 
2 | CCCC[C@H](NC(=O)[C@@H](NC(=O)[C@H](CCC(=O)O)NC(=O)[C@H](C)NC(=O)[C@H](CC(N)=O)NC(=O)C(C)(C)NC(=O)[C@H](CCCCNC(=O)COCCOCCNC(=O)COCCOCCNC(=O)CC[C@H](NC(=O)CC[C@H](NC(=O)CCCCCCCCCCCCCCCCCCC(=O)O)C(=O)O)C(=O)O)NC(=O)[C@H](C)NC(=O)[C@H](CCC(N)=O)NC(=O)[C@H](CCC(=O)O)NC(=O)[C@H](CCCNC(=N)N)NC(=O)[C@H](C)NC(=O)[C@H](C)NC(=O)[C@H](CCCNC(=N)N)NC(=O)[C@H](C)NC(=O)[C@H](CCCNC(=N)N)NC(=O)[C@H](C)NC(=O)[C@H](CCC(N)=O)NC(=O)[C@H](CO)NC(=O)[C@H](CC(C)C)NC(=O)[C@H](CC(C)C)NC(=O)[C@@H](NC(=O)[C@H](CCC(N)=O)NC(=O)[C@H](CC(C)C)NC(=O)[C@H](CC(C)C)NC(=O)CNC(=O)[C@@H](NC(=O)[C@@H]1CCCN1C(=O)[C@@H](NC(=O)[C@H](CC(=O)O)NC(=O)[C@H](CC(C)C)NC(=O)[C@H](CO)NC(=O)[C@H](CC(C)C)NC(=O)[C@@H](NC(=O)[C@@H]1CCCN1)C(C)C)C(C)C)[C@@H](C)CC)[C@@H](C)CC)[C@@H](C)CC)C(=O)N[C@@H](C)C(=O)N[C@@H](CCC(=O)O)C(=O)N[C@H](C(N)=O)C(C)C [SEQ ID NO: 238] (H-PVLSLDVPIGLLQILLSQARARAAREQAK([AEEA-AEEA-γGlu-γGlu-C20 diacid])[Aib]NAEI[Nle]AEV-NH2) |  | 86% | 44 nM | 48 h | 0.067 nM | > 5000 nM | 0.015 nM | 0.016 nM | 212 h
